Assay results from publication PMC9945734 (BMC Medicine, 2023).

Test system: PC-3-KQ and PC-3-KR cells
Assay: RNA-sequencing and differential gene expression
Type: cell-based, human
Settings: for logFC: KQ-Control vs KQ-NTZ

## CC(=O)Oc1ccccc1C(=O)Nc1ncc([N+](=O)[O-])s1 [Nitazoxanide]
Gene ANKRD36C
  change of NTZ treatment: down
Gene ANKRD37
  logFC: 0.9125
Gene ANXA8
  logFC: 0.7906
Gene ANXA8L1
  change of NTZ treatment: down
Gene ARG2
  change of NTZ treatment: up
  logFC: 2.138
Gene ARL10
  change of NTZ treatment: down
Gene ARSK
  change of NTZ treatment: up
  logFC: 0.7653
Gene ASB2
  change of NTZ treatment: down
Gene ATP2A3
  logFC: 1.284
Gene BRINP2
  change of NTZ treatment: down
Gene BTBD11
  change of NTZ treatment: down
Gene BTN3A3
  change of NTZ treatment: up
Gene CAPN12
  logFC: 0.767
Gene CAPSL
  change of NTZ treatment: down
Gene CCNA1
  logFC: 0.9046
Gene CEP19
  change of NTZ treatment: down
Gene CFB
  logFC: 0.9221
Gene CNTNAP3B
  change of NTZ treatment: down
Gene COL4A3
  logFC: 2.258
Gene COL4A4
  logFC: 0.8129
Gene CSF1R
  change of NTZ treatment: up
Gene CXCL5
  change of NTZ treatment: down
Gene CYP1B1
  change of NTZ treatment: up
Gene CYP2E1
  change of NTZ treatment: up
Gene CYP8B1
  change of NTZ treatment: up
  logFC: 1.238
Gene CYSTM1
  change of NTZ treatment: up
  logFC: 0.6246
Gene DEPTOR
  change of NTZ treatment: down
Gene DISP1
  change of NTZ treatment: up
  logFC: 0.6346
Gene DMPK
  change of NTZ treatment: up
  logFC: 0.6319
Gene DRP2
  change of NTZ treatment: down
Gene ECM2
  change of NTZ treatment: down
Gene ESPN
  change of NTZ treatment: up
Gene FA2H
  logFC: 1.574
Gene FAM83D
  change of NTZ treatment: down
Gene FAM178B
  logFC: 1.11
Gene FAM186B
  change of NTZ treatment: down
Gene FANCI
  change of NTZ treatment: down
Gene FANCL
  change of NTZ treatment: down
Gene FCGBP
  change of NTZ treatment: down
Gene FER1L6
  logFC: 0.6222
Gene FIBCD1
  logFC: 1.28
Gene FLI1
  change of NTZ treatment: down
Gene FLRT1
  change of NTZ treatment: down
Gene FRY
  change of NTZ treatment: up
  logFC: 1.204
Gene FSD2
  change of NTZ treatment: down
Gene FTH1
  logFC: 1.218
Gene FUT3
  logFC: 0.7626
Gene FXYD3
  logFC: 0.8317
Gene FZD4
  change of NTZ treatment: down
Gene GALNT12
  logFC: 0.8862
Gene GCNT3
  change of NTZ treatment: up
  logFC: 2.701
Gene GDPD3
  logFC: 1.109
Gene HAS3
  change of NTZ treatment: down
Gene HSPB8
  change of NTZ treatment: up
  logFC: 1.784
Gene IFITM10
  change of NTZ treatment: up
Gene IGDCC4
  change of NTZ treatment: up
  logFC: 1.493
Gene IGF2BP1
  change of NTZ treatment: down
Gene IL1RN
  change of NTZ treatment: up
Gene IL36RN
  logFC: 0.6398
Gene INHBA
  change of NTZ treatment: down
Gene KDELR2
  change of NTZ treatment: up
  logFC: 0.621
Gene KIAA0319
  logFC: 2.322
Gene KIAA1755
  change of NTZ treatment: down
Gene KLHDC7B
  logFC: 1.286
Gene LOC105374299
  logFC: 1.732
Gene LONRF2
  change of NTZ treatment: down
Gene LRRK1
  logFC: 0.8715
Gene LTB
  change of NTZ treatment: down
Gene MAP2
  change of NTZ treatment: up
  logFC: 0.8904
Gene MCM4
  change of NTZ treatment: down
Gene MEF2C
  change of NTZ treatment: up
Gene MEOX1
  change of NTZ treatment: down
Gene METRNL
  change of NTZ treatment: up
Gene MFSD2A
  logFC: 0.6152
Gene MINAR1
  logFC: 1.165
Gene MMP9
  change of NTZ treatment: down
Gene MROH8
  change of NTZ treatment: down
Gene MUC4
  change of NTZ treatment: up
  logFC: 1.575
Gene MVP
  logFC: 0.7778
Gene MYH7B
  change of NTZ treatment: down
Gene NAV1
  change of NTZ treatment: up
  logFC: 1.226
Gene NECTIN4
  logFC: 1.852
Gene NKD1
  change of NTZ treatment: down
Gene NLRC5
  logFC: 0.8508
Gene NR4A2
  change of NTZ treatment: up
Gene NT5E
  change of NTZ treatment: up
  logFC: 0.5964
Gene PCDH18
  change of NTZ treatment: down
Gene PDGFA
  logFC: 0.7622
Gene PDZK1
  change of NTZ treatment: up
  logFC: 0.8579
Gene PGAM4
  change of NTZ treatment: down
Gene PHOSPHO2
  change of NTZ treatment: down
Gene PIANP
  change of NTZ treatment: down
Gene PKIA
  logFC: 0.8539
Gene PLEKHG1
  change of NTZ treatment: up
Gene PRKAR1B
  logFC: 0.8008
Gene PRKDC
  change of NTZ treatment: down
Gene PROS1
  change of NTZ treatment: up
  logFC: 0.9134
Gene PRR16
  change of NTZ treatment: down
Gene PRRT4
  change of NTZ treatment: down
Gene RBL1
  change of NTZ treatment: down
Gene RMDN2
  logFC: 0.9051
Gene RND1
  change of NTZ treatment: up
Gene RP1L1
  change of NTZ treatment: down
Gene S100A6
  change of NTZ treatment: up
  logFC: 0.6427
Gene SAT1
  logFC: 0.7952
Gene SDCBP2
  logFC: 1.238
Gene SERPINA5
  change of NTZ treatment: down
Gene SERPINB3
  change of NTZ treatment: down
Gene SERPINB4
  change of NTZ treatment: down
Gene SERPIND1
  change of NTZ treatment: down
Gene SGK3
  change of NTZ treatment: up
Gene SHISA3
  change of NTZ treatment: down
Gene SLC41A2
  change of NTZ treatment: up
  logFC: 0.8444
Gene SLFN11
  change of NTZ treatment: up
Gene SMCO4
  change of NTZ treatment: up
Gene SPOCK2
  change of NTZ treatment: up
  logFC: 1.756
Gene SRPX
  logFC: 0.5983
Gene STK32A
  logFC: 1.274
Gene SYN3
  logFC: 1.227
Gene TBX2
  logFC: 0.6055
Gene TCN1
  change of NTZ treatment: down
Gene TJP3
  change of NTZ treatment: up
  logFC: 0.6134
Gene TMEM140
  change of NTZ treatment: up
Gene TMEM269
  change of NTZ treatment: up
  logFC: 0.7715
Gene TMOD1
  logFC: 1.793
Gene TMPRSS2
  logFC: 1.205
Gene TNFRSF6B
  change of NTZ treatment: down
Gene TNFRSF11B
  change of NTZ treatment: down
Gene TNFSF14
  logFC: 1.643
Gene TRIM31
  change of NTZ treatment: up
  logFC: 1.207
Gene TTC9
  change of NTZ treatment: up
Gene TTC30B
  change of NTZ treatment: down
Gene UGT2B7
  logFC: 1.608
Gene WHRN
  logFC: 0.869
Gene WNT4
  logFC: 1.78
Gene WNT9A
  change of NTZ treatment: up
Gene ZNF302
  change of NTZ treatment: down
